ChEMBL document CHEMBL1201862, “PubChem BioAssay data set” (2004)
Calls of active or inactive are those of the source.

Experiments:
Steroidogenic factor 1 = Steroidogenic factor 1 (Homo sapiens, UniProt Q13285); assay: Counterscreen for inverse agonists of the liver receptor homolog-1 (LRH-1; NR5A2): Luminescence-based cell-based high throughput dose response assay to identify inverse agonists of the Steroidogenic Factor 1 Nuclear Receptor (SF1; NR5A1).; type: functional
[1] = StAR promoter reporter inhibition counter-screen, dose response, counter-screen for LRH-1 inverse agonist project, cell-based, luminescence, luciferase reporter (AID 651969); type: functional
[2] = target: Nuclear receptor subfamily 5 group A member 2 (Homo sapiens, UniProt O00482); type: functional, cell-based;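 further: HEK293T cells transfected with LRH-1 and a StAR promoter luciferase reporter; potency for inhibitors that lower LRH-1 driven reporter light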
Nuclear receptor subfamily 5 group A member 2, sequence (O00482 whole entry): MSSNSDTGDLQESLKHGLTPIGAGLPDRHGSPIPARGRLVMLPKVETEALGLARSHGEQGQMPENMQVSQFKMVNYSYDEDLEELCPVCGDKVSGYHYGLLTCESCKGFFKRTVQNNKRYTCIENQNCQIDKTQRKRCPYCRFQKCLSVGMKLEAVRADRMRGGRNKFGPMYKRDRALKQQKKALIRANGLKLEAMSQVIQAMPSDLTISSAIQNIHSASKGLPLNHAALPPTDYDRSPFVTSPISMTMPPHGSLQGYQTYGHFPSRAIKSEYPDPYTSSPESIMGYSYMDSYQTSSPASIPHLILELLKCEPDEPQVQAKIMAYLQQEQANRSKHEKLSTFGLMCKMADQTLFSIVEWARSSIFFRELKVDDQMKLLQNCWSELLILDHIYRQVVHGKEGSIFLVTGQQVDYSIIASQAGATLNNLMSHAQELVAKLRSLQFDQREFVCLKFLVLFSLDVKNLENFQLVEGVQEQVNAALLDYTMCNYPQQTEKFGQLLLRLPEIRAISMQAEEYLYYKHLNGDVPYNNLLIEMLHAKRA

[3] = target: T1, Corticotropin-releasing factor receptor 2/Corticotropin-releasing factor-binding protein (Homo sapiens, UniProt P24387+Q13324); assay: Dose Response confirmation of uHTS hits for small molecule antagonists of the CRF-binding protein and CRF-R2 receptor complex.; type: functional; details: read-out: IC50_Mean
T1 sequence (Q13324 whole entry): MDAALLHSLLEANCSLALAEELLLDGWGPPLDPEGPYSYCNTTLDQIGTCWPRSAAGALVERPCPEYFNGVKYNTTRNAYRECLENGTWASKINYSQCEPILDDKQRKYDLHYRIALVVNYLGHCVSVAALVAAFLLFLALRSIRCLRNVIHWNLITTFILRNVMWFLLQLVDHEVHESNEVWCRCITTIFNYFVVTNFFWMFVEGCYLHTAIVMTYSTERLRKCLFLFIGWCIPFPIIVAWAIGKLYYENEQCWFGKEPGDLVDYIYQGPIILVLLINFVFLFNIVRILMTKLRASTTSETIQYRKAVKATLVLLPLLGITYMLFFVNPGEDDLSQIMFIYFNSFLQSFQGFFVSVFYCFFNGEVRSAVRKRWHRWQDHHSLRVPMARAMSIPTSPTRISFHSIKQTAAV
T1 sequence (P24387 whole entry): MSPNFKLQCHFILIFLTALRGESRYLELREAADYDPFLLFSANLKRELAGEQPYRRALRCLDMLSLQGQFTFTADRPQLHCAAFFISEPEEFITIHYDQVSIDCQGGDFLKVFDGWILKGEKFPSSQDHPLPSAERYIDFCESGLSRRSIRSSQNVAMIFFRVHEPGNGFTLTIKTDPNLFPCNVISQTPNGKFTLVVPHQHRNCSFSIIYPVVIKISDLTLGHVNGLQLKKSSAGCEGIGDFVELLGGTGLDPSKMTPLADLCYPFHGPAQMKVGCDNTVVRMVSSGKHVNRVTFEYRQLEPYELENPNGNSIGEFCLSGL

[4] = CRF-BP/CRF-R2 complex antagonists, dose response, cell-based, uHTS hits, 384-well (AID 651639); type: functional, Homo sapiens; details: read-out: IC50_Mean
[5] = target: T1, Corticotropin-releasing factor receptor 2/Corticotropin-releasing factor-binding protein; assay: activators of CRF receptor 2 with binding protein – uHTS hits, confirmation (AID 602473); type: functional; details: read-out: EC50_Mean
[6] = target: T2, Probable nicotinate-nucleotide adenylyltransferase (Staphylococcus aureus (strain N315), UniProt P65502); type: functional, Staphylococcus aureus subsp. aureus N315; details: read-out: IC50_Mean;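 on IC50 Mean: confirmatory dose-response retesting of NadD inhibitor hits first found in an ultra-high-throughput screen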
T2 sequence (P65502 whole entry): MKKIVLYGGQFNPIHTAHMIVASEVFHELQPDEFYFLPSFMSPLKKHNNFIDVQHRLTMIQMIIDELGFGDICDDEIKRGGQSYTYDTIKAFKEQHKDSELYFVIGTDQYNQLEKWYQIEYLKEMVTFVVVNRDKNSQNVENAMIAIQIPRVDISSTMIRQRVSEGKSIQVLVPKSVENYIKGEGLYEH

[7] = target: T2, Probable nicotinate-nucleotide adenylyltransferase; type: functional, Staphylococcus aureus subsp. aureus N315
[8] = target: T3, Heat shock factor protein 1 (Mus musculus, UniProt P38532); assay: HSF1 potentiators in luciferase reporter cells, confirmation, cell-based, NIH3T3, luminescence, dose retest (AID 435004); type: functional;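 further: stress induced by proteasome inhibitor MG132 added 30 min after compound; luciferase reporter driven by HSF1 response element in NIH3T3 cells; actives raise luminescence as potentiators of the MG132 stress response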
T3 sequence (P38532 whole entry): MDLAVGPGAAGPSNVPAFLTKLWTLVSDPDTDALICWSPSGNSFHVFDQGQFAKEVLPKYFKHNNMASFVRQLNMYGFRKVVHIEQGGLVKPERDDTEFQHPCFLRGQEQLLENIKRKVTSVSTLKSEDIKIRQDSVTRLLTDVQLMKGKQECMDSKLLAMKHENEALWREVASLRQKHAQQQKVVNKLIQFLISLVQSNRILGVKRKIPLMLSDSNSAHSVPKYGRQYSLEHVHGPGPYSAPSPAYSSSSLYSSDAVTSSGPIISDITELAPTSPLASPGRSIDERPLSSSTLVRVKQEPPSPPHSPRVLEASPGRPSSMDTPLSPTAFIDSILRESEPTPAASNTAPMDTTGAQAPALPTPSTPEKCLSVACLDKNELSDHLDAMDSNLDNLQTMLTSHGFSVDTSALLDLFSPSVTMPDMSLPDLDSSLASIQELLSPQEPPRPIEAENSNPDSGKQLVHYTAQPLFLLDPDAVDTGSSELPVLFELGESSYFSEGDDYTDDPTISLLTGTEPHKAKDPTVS

[9] = target: T4, DNA repair and recombination protein RAD54-like (Homo sapiens, UniProt Q92698); assay: inhibitors of human RAD54 branch migration, confirmation, biochemical, fluorescence, cherry-picked samples, dose series (AID 651657); type: functional
T4 sequence (Q92698 whole entry): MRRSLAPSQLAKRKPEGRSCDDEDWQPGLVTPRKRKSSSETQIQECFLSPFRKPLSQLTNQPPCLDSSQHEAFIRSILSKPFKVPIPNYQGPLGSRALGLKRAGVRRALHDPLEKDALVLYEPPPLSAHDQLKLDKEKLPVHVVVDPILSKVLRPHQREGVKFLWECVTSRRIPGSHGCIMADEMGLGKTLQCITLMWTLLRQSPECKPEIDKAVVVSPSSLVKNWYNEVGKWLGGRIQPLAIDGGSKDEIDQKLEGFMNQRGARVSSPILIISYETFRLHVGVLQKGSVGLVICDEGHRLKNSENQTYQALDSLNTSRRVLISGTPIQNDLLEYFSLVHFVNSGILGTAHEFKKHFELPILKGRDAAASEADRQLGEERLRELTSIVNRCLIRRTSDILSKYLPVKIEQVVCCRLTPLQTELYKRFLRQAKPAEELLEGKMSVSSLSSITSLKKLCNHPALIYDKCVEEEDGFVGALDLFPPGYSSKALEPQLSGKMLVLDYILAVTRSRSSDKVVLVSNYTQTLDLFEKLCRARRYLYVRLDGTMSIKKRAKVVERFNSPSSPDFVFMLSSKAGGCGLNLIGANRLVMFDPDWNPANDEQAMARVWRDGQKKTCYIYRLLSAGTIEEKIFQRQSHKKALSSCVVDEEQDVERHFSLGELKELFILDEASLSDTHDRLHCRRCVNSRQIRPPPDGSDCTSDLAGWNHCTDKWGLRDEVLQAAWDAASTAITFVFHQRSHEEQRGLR

[10] = HepG2 cell cytotoxicity, dose response, cytotoxicity control, ATP luminescence, cherry-pick, activator set 2 (AID 1053143); type: functional, cell-based
[11] = MDA-MB-231 cell growth inhibition, dose response, cytotoxicity control for RAD54 inhibitor project, CellTiter-Glo luminescence, cherry-pick (AID 651692); type: functional, cell-based
HEK293 = assay: cells; type: functional, cell-based; details: Homo sapiens
[12] = target: Nuclear receptor subfamily 0 group B member 1 (Homo sapiens, UniProt P51843); assay: Luminescence-based cell-based high throughput dose response assay for inhibitors of the orphan nuclear receptor subfamily 0, group B, member 1 (DAX1; NR0B1). [Related pubchem assays (depositor defined):AID504766, AID504790]; type: functional
Nuclear receptor subfamily 0 group B member 1, sequence (P51843 whole entry): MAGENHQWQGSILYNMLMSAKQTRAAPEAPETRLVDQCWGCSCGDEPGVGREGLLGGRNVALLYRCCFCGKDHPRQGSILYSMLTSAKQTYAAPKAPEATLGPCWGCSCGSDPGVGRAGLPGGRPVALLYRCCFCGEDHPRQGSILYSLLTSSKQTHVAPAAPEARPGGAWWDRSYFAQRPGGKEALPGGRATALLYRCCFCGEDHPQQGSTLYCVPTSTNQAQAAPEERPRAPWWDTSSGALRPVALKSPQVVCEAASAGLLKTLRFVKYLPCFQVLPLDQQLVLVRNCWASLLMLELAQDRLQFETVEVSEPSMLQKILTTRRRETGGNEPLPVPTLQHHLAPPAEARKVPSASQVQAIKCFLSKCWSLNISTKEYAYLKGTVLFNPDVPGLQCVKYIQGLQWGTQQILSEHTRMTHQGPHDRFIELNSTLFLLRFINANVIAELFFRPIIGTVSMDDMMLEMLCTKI

Steroidogenic factor 1, sequence (Q13285 whole entry): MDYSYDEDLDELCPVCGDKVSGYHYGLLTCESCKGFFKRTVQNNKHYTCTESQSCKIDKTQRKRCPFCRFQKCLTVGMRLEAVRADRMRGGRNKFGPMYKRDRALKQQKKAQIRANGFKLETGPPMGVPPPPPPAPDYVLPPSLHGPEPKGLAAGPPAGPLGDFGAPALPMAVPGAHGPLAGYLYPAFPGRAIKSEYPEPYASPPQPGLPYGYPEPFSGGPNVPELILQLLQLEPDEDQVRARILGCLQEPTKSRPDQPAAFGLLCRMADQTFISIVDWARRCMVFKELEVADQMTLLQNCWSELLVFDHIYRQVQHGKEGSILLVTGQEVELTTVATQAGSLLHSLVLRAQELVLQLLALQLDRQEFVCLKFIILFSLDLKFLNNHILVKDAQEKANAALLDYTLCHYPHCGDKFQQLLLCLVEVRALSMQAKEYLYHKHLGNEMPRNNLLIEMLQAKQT

For `Cc1ccc(NC(=O)COC(=O)c2cc(=O)c3ccccc3o2)c(Br)c1`, the IC50 (Steroidogenic factor 1) was 24.3 µM (inactive), the IC50 [1] was 35.9 µM (inactive) and the IC50 [2] was 3.98 µM (active).

For `O=C(Cc1ccccc1)NCC(=O)OC(c1ccccc1)c1ccccc1`, the IC50 [3] was 18.9 µM (active), the IC50 [4] was > 20 µM (inactive) and the EC50 [5] was > 53 µM (inactive).

For `O=C(CNc1cccc2ccccc12)N/N=C/c1ccc([N+](=O)[O-])cc1`, the IC50 [6] was 80 µM (inactive), the IC50 [7] was 44.3 µM (active) and the EC50 [8] was > 260 µM (inactive).

For `CCN1C(=O)CCN(C2CCCC2)c2nc(Nc3ccc(C(=O)NC4CCN(C)CC4)cc3OC)ncc21`, the AC50 [9] was 39.3 µM (active), the AC50 [10] was 13 µM (active) and the AC50 [11] was 36.4 µM (active). The IC50 (HEK293) was > 67.5 µM (inactive) and the IC50 [12] was > 67.5 µM (inactive).
